{"source": "patent US12440473B2", "about": "(priority 2019, dated 2025)", "key": {"full length human PPAR-α": {"molecular_target": "T1, full length human PPAR-α (Homo sapiens, UniProt Q07869)", "T1 construct": "host or cells: Chinese hamster ovary (CHO) cell lines", "T1 sequence (Q07869 1-468)": "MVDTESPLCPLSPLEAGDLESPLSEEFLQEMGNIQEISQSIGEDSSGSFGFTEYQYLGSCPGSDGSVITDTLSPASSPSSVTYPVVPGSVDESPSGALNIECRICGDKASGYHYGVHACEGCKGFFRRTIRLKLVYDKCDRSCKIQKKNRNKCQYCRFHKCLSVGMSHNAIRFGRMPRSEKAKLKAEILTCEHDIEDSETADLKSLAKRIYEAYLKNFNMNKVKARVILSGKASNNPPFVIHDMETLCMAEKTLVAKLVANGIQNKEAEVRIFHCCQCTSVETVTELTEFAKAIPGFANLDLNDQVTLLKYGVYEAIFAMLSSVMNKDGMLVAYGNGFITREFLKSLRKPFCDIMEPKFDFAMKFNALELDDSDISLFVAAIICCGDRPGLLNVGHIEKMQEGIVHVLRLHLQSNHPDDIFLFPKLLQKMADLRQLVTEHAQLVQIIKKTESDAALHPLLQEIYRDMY", "assay": "PathHunter NHR Protein Interaction assay, PPAR-α agonist activity (CHO cells)", "assay_type": "cell-based", "conditions": "for Emax: CHO, PPAR-alpha, free fatty acid form, normalized to control compound (GW7647), read-out: Maximum Response; for pEC50: Table 5, read-out: Cell-Based PPAR Agonist Activity Half Maximal Effective Concentration (EC50) PPAR-α; for PPAR-α EC50 % improvement over FFA form: compared to free fatty acid form; for PPAR-α agonist maximum activity: text of Example 3", "protocol": "(§1) PPAR-α, PPAR-δ, and PPAR-γ agonist activities were measured using PathHunter Nuclear Hormone Receptor (NHR) Protein Interaction (Pro) assays (DiscoverX, Freemont, California). Briefly, Chinese hamster ovary (CHO) cell lines were used to monitor the activation of PPAR-α, PPAR-δ, and PPAR-γ in a homogenous, non-imaging assay format using Enzyme Fragment Complementation (EFC). The NHR Pro assay was based on detection of protein-protein interactions between activated, full length PPAR-α, PPAR-δ, and PPAR-γ proteins and a nuclear fusion protein containing Steroid Receptor Co-activator Peptide (SRCP) domains with one or more canonical LXXLL interaction motifs. PPAR-α, PPAR-δ, and PPAR-γ were tagged with the ProLink component of the EFC assay system, and the SRCP domain was fused to the enzyme acceptor component (EA) expressed in the nucleus. When bound by ligand, PPAR-α, PPAR-δ, or PPAR-γ migrated to the nucleus and recruited the SRCP domain, whereby complementation occurred, generating a unit of active β-Galactosidase (β-Gal) and production of chemiluminescent signal. […] Percentage activity was calculated using the following formula: % Activity=100%×(mean RLU of test sample−mean RLU of vehicle control)/(mean MAX control ligand−mean RLU of vehicle control)."}, "full length human PPAR-γ": {"molecular_target": "T2, full length human PPAR-γ (Homo sapiens, UniProt P37231)", "T2 construct": "host or cells: Chinese hamster ovary (CHO) cell lines", "T2 sequence (P37231 1-505)": "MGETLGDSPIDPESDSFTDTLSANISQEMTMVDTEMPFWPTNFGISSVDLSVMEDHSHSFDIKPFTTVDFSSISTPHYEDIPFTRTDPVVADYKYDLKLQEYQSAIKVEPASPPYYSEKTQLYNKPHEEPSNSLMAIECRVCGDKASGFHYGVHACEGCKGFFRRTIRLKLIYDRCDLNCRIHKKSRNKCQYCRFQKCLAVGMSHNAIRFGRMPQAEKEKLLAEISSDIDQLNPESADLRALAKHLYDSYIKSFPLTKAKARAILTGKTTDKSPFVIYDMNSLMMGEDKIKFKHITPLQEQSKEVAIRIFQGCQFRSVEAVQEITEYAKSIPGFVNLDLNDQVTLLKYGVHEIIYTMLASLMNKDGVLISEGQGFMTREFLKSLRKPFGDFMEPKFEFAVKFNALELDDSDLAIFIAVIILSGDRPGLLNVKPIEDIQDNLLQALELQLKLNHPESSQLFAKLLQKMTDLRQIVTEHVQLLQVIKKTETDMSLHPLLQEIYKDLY", "assay": "PathHunter NHR Protein Interaction assay, PPAR-γ agonist activity (CHO cells)", "assay_type": "cell-based", "conditions": "for Emax: CHO, PPAR-gamma, free fatty acid form, normalized to control compound (Troglitazone), read-out: Maximum Response", "protocol": "as §1"}, "full length human PPAR-δ": {"molecular_target": "T3, full length human PPAR-δ (Homo sapiens, UniProt Q03181)", "T3 construct": "host or cells: Chinese hamster ovary (CHO) cell lines", "T3 sequence (Q03181 1-441)": "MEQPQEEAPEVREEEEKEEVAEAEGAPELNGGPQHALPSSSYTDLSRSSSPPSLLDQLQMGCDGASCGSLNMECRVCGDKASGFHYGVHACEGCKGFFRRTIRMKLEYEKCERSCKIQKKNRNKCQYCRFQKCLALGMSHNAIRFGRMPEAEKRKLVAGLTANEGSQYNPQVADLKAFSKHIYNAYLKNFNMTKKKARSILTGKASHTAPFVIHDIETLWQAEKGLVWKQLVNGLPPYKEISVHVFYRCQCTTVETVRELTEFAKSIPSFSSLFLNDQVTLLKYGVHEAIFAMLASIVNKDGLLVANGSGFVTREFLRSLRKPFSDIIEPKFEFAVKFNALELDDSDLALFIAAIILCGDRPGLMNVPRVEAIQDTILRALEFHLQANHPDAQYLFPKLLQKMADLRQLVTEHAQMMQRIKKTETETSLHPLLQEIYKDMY", "assay": "PathHunter NHR Protein Interaction assay, PPAR-δ agonist activity (CHO cells)", "assay_type": "cell-based", "conditions": "for Emax: CHO, free fatty acid form, normalized to control compound (L-165,041), read-out: Maximum Response; for PPAR-δ EC50 % improvement over FFA form: compared to free fatty acid form", "protocol": "as §1"}, "diet-induced obese mice": {"test_system": "diet-induced obese mice", "assay": "Diet-induced obese mice on high fat diet, daily oral gavage for 12 weeks", "conditions": "for Cholesterol / Glucose: Results (Day 84), 6 h fasted samples", "protocol": "Forty C57BL/6J mice were fed a high fat diet (HFD) (D12492, 60% kcals fat) for 8 weeks. Study mice were then divided into the following four groups of ten: vehicle controls, low dose C17:0-treated (5 mg/kg body weight), high-dose C17:0-treated (50 mg/kg body weight), and low-dose C15:0-treated (5 mg/kg body weight).\n“Results” values are based on 6 h fasted samples."}, "[1]": {"test_system": "G protein-coupled receptors, kinases, transporters, ion channels, nuclear receptors, non-kinase enzymes", "assay": "SAFETYscan E/IC50 ELECT panel, agonist and antagonist activities across 78 assays", "description": "(§2) Briefly, a variety of standardized and optimized functional assays were used to assess and compare the selected compounds' pharmacologic targets, including G protein-coupled receptors (ADORA2A, ADRA1A, ADRA2A, ADRB1, ADRB2, CB1, CB2, CCK1, D1, D2S, ETA, H1, H2, M1 M2, M3, OPRD1, OPRK1, OPRM1, 5HTR1A, 5HTR1B, 5HTR2A, 5HTR2B, AVPR1A), kinases (LCK, INSR, VEGFR2, ROCK1), transporters (DAT, NET, SERT), ion channels (GABAA, 5-HT3, CA1.2, HERG, KVLQT1/MINK, NA1.5, NMDAR1/2B, NACHR), nuclear receptors (AR, GR), and non-kinase enzymes (COX1, COX2, ACHE, MAO-A, PDE3A, PDE4D2). […] Maximum activity (%) was also determined based on comparisons with internal positive controls, which were assigned 100% activity."}, "CB1 receptor [2]": {"molecular_target": "T4, CB1 receptor (Homo sapiens, UniProt P21554)", "T4 sequence (P21554 whole entry)": "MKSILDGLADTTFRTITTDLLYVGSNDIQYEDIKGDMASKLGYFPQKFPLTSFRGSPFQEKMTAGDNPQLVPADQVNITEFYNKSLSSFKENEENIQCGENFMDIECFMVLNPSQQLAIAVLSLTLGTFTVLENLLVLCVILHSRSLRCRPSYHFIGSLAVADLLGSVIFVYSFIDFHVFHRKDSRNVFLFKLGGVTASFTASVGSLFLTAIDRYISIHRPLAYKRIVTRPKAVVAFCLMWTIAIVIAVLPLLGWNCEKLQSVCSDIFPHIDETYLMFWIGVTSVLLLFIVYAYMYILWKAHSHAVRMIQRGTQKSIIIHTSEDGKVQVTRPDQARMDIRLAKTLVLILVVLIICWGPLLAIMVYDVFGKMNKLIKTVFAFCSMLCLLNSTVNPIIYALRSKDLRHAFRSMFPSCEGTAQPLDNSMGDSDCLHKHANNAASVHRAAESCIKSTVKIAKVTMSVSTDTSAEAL", "conditions": "for CB1-agonist maximum activity: positive control CP 55940 assigned 100% activity", "description": "as §2"}, "OPRM1": {"molecular_target": "OPRM1 (Homo sapiens, UniProt P35372)", "sequence (P35372 whole entry)": "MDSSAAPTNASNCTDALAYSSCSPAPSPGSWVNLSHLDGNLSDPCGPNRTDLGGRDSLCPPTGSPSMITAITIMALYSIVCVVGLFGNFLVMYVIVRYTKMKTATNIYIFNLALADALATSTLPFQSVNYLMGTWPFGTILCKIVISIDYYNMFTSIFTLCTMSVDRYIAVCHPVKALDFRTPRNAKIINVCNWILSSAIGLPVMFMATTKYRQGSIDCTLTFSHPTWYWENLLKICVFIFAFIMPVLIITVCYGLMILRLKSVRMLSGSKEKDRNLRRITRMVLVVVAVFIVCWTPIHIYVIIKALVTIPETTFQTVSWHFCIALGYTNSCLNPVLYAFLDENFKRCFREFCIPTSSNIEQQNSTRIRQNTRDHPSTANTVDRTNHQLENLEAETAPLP", "description": "as §2"}, "cannabinoid receptor 1": {"molecular_target": "cannabinoid receptor 1 (Homo sapiens, UniProt P21554)", "sequence (P21554 whole entry, species assumed)": "as the sequence (P21554 whole entry) above", "assay": "Cannabinoid receptor 1 agonist activity (Example 4)", "conditions": "for % maximum activity compared to positive control (CP55940): cannabinoid receptor 1 agonist (Table 6)"}, "CB1 receptor [3]": {"molecular_target": "T4, CB1 receptor", "assay": "cell-based", "description": "as §2"}}, "note": "pEC50, pIC50: −log10 of the molar value. Where two headings read alike, the source gives them in different places."}
{"smiles": "CCCCCCCCCCCCCCCC(=O)O", "note": "[C16:0, palmitic acid, reference compound]", "values": [{"measurement": "Emax", "setting": "full length human PPAR-α", "result": 56.1, "unit": "%"}, {"measurement": "Emax", "setting": "full length human PPAR-γ", "result": 4.7, "unit": "%"}]}
{"smiles": "CCCCCCCCCCCCCCC(=O)O", "note": "[C15:0, pentadecanoic acid]", "values": [{"measurement": "Emax", "setting": "full length human PPAR-α", "result": 65.8, "unit": "%"}, {"measurement": "Emax", "setting": "full length human PPAR-δ; PPAR-delta", "result": 52.8, "unit": "%"}, {"measurement": "Emax", "setting": "full length human PPAR-γ", "result": 7, "unit": "%"}, {"measurement": "metabolic syndrome (glucose, insulin, cholesterol, proinflammatory cytokines) compared to controls", "setting": "diet-induced obese mice; 5 mg/kg, vs vehicle control group", "result": "attenuated metabolic syndrome"}, {"measurement": "Cholesterol", "setting": "diet-induced obese mice; 5 mg/kg daily oral", "result": "183 ± 25", "unit": "mg/dL"}, {"measurement": "Glucose", "setting": "diet-induced obese mice; 5 mg/kg daily oral", "result": "245 ± 37", "unit": "mg/dL"}, {"measurement": "additional activity across 78 assays", "setting": "[1]", "result": "no additional activity was detected"}]}
{"smiles": "CCCCCCCCCCCCCCc1nnn[nH]1", "note": "[1-tetrazole-C15:0]", "values": [{"measurement": "pEC50", "setting": "full length human PPAR-α", "result": 5.59}, {"measurement": "PPAR-α EC50 % improvement over FFA form", "setting": "full length human PPAR-α", "result": 77, "unit": "%"}, {"measurement": "PPAR-α agonist maximum activity", "setting": "full length human PPAR-α", "result": 32, "unit": "%"}, {"measurement": "pEC50", "setting": "full length human PPAR-δ; Table 5, read-out: Cell-Based PPAR Agonist Activity Half Maximal Effective Concentration (EC50) PPAR-δ", "result": 6.30}, {"measurement": "PPAR-δ EC50 % improvement over FFA form", "setting": "full length human PPAR-δ", "result": 81, "unit": "%"}, {"measurement": "PPAR-δ agonist maximum activity", "setting": "full length human PPAR-δ; text of Example 3", "result": 18, "unit": "%"}, {"measurement": "pEC50", "setting": "full length human PPAR-γ; Table 5, read-out: Cell-Based PPAR Agonist Activity Half Maximal Effective Concentration (EC50) PPAR-γ", "result": "< 4.00"}, {"measurement": "CB1-agonist maximum activity", "setting": "CB1 receptor [2]", "result": 48.3, "unit": "%"}, {"measurement": "pIC50", "setting": "CB1 receptor [2]; read-out: CB1-agonist activity IC50, ten-point concentration curves", "result": 5.89}, {"measurement": "OPRM1 antagonist maximum activity", "setting": "OPRM1", "result": 46.2, "unit": "%"}, {"measurement": "pIC50", "setting": "OPRM1; read-out: OPRM1 antagonist IC50, ten-point concentration curves", "result": 5.41}]}
{"smiles": "CCCCCCCCCCCCCC(CC)(CC)C(=O)O", "note": "[diethyl-C15:0]", "values": [{"measurement": "pEC50", "setting": "cannabinoid receptor 1", "result": 5.48}, {"measurement": "% maximum activity compared to positive control (CP55940)", "setting": "cannabinoid receptor 1", "result": 93, "unit": "%"}]}
{"smiles": "CCCCCCCCCCCCOCC(=O)O", "note": "[3-oxa-C15:0, 2-(dodecyloxy)acetic acid]", "values": [{"measurement": "pEC50", "setting": "cannabinoid receptor 1", "result": 6.24}, {"measurement": "% maximum activity compared to positive control (CP55940)", "setting": "cannabinoid receptor 1", "result": 83, "unit": "%"}]}
{"smiles": "CCCCCCCCCCCCCC(C)C(=O)O", "note": "(centres unmarked) [2-methyl-C15:0, 2-methylpentadecanoic acid]", "values": [{"measurement": "additional activity across 78 assays", "setting": "[1]", "result": "no additional activity was detected"}]}
{"smiles": "CCCCCCCCCCCCCCCCC(=O)O", "note": "[C17:0, heptadecanoic acid]", "values": [{"measurement": "Emax", "setting": "full length human PPAR-α", "result": 16.7, "unit": "%"}, {"measurement": "Emax", "setting": "full length human PPAR-δ; PPAR-delta", "result": 39.8, "unit": "%"}, {"measurement": "pEC50", "setting": "full length human PPAR-δ; PPAR-delta, free fatty acid form (Table 4), read-out: EC50", "result": 4.76}, {"measurement": "Emax", "setting": "full length human PPAR-γ", "result": 1, "unit": "%"}, {"measurement": "metabolic syndrome compared to controls", "setting": "diet-induced obese mice; C17:0 5 and 50 mg/kg, vs vehicle control group", "result": "trended toward attenuated metabolic syndrome"}, {"measurement": "Cholesterol", "setting": "diet-induced obese mice; 5 mg/kg daily oral", "result": "197 ± 31", "unit": "mg/dL"}, {"measurement": "Glucose", "setting": "diet-induced obese mice; 5 mg/kg daily oral", "result": "296 ± 23", "unit": "mg/dL"}, {"measurement": "Cholesterol", "setting": "diet-induced obese mice; 50 mg/kg daily oral", "result": "187 ± 44", "unit": "mg/dL"}, {"measurement": "Glucose", "setting": "diet-induced obese mice; 50 mg/kg daily oral", "result": "282 ± 31", "unit": "mg/dL"}, {"measurement": "proinflammatory cytokines and chemokines (TNF-α and MCP-1) compared to controls", "setting": "diet-induced obese mice; high-dose 50 mg/kg, vs vehicle control group", "result": "significantly lower"}]}
{"smiles": "CCCCCCCCCCCCCC(CC)C(=O)O", "note": "(centres unmarked) [2-ethyl-C15:0, 2-ethylpentadecanoic acid]", "values": [{"measurement": "PPAR-α EC50 % improvement over FFA form", "setting": "full length human PPAR-α", "result": 90, "unit": "%"}, {"measurement": "PPAR-α agonist maximum activity", "setting": "full length human PPAR-α", "result": 170, "unit": "%"}, {"measurement": "PPAR-δ EC50 % improvement over FFA form", "setting": "full length human PPAR-δ", "result": 89, "unit": "%"}, {"measurement": "PPAR-δ agonist maximum activity", "setting": "full length human PPAR-δ; text of Example 3", "result": 72.4, "unit": "%"}, {"measurement": "pEC50", "setting": "full length human PPAR-δ; text of Example 3, read-out: PPAR-δ agonist EC50", "result": 7.55}, {"measurement": "PPAR-γ EC50 % improvement over FFA form", "setting": "full length human PPAR-γ; compared to free fatty acid form", "result": ">49", "unit": "%"}, {"measurement": "PPAR-γ agonist activity", "setting": "full length human PPAR-γ; in words", "result": "acquired PPAR-γ agonist activity"}, {"measurement": "CB1-agonist maximum activity", "setting": "CB1 receptor [2]", "result": 53.7, "unit": "%"}, {"measurement": "pEC50", "setting": "CB1 receptor [3]", "result": 7.57}]}
{"smiles": "CCCCCCCCCCCCCC(=O)O", "note": "[C14:0, myristic acid, reference compound]", "values": [{"measurement": "Emax", "setting": "full length human PPAR-α", "result": 74.1, "unit": "%"}, {"measurement": "pEC50", "setting": "full length human PPAR-α", "result": 5.08}, {"measurement": "Emax", "setting": "full length human PPAR-γ", "result": 19, "unit": "%"}]}
